Laboratory results published in ChEMBL document CHEMBL3507680, “University of Dundee, Gates Library screen for HepG2 cell viability”.

Assay: Human HepG2 cell viability assay in 384 well format
Type: toxicity, cell-based
Design: dose 125 nL, time 70.5 hour; cytotoxicity at 70.5 h: concentration not given beside the values
Conditions: HepG2 cells, read-out: Inhibition

SMILES	cytotoxicity at 70.5 h [%]
CCn1ccnc1CN1CCN(C(C)C(=O)N2CCCC2)CC1 (configuration not stated)	-3.5
COCCN1C(=O)[C@H]2CC[C@@H]1CN(C(=O)CCc1n[nH]c(C)c1C)C2	-13.9
Cc1cc(C)n(CC2CCN(CC(O)CN3CCOCC3)CC2)n1 (configuration not stated)	-2.43
CC(C)CCN1C[C@H]2C[C@H](C(=O)Nc3cccnc3)[C@@H](C1)O2	-6.02
CS(=O)(=O)Cc1nc(CCc2ccccc2)nn1-c1ccccn1	-10.4
Cc1ccc(OCCN2CCC(c3ccnn3CCO)CC2)cc1	3.29
O=C(c1cn[nH]c1)N1CCC2(CCCN(Cc3ccc(F)c(F)c3)C2)C1 (configuration not stated)	-8.34
CCn1c(CN(C)C(=O)c2ccc(N(C)C)nc2)nc2ccccc21	-14
CC(NC(=O)CCCn1cnc2ccccc2c1=O)c1ncn[nH]1 (configuration not stated)	-15.2
CNC(=O)[C@@H]1C[C@@H](NC(=O)Cc2cccs2)CN1C1CCOCC1	-3.22
Cc1ccc(CNC(=O)CN2CCN(CC(O)c3ccco3)CC2)cc1 (configuration not stated)	29.2
O=C(NCCN1CCOCC1)c1cnc(Cc2ccc(F)cc2)s1	-8.24
OCCOCCNCC1(c2ccc(F)cc2)CCOC1 (configuration not stated)	-0.024
Cn1ccc(CN2CCC(NC(=O)NC3CCCCC3)CC2)cc1=O	-5.64
COC1CCN(C(=O)c2ccccc2NCc2cccnc2)CC1	-2.63
Cc1cc(NC(=O)NCC(O)c2ccc(Cl)cc2Cl)n(C)n1 (configuration not stated)	-11.8
CC(C)(NCC(=O)NCC1CC1)c1ccc2c(c1)OCCO2	15.5
O=C(c1ccccn1)N1C[C@@H](OCc2cccnc2)[C@H]2OCCC[C@@H]21	9.73
CSCCCN1CCCC1c1noc(C)n1 (configuration not stated)	1.11
CC(=O)Nc1ncc(S(=O)(=O)Nc2cccc(O)c2)s1	-13.4
Cc1ccccc1C1(CNC(=O)c2cccc(S(C)(=O)=O)c2)CC1	20.2

SMILES	cytotoxicity at 70.5 h [%]
CN(C)c1ccc(-c2cccc(-c3ccn(CCCO)n3)c2)nn1	-3.34
Cn1ccnc1COc1ccc(COC(=O)C2CCCO2)cc1 (configuration not stated)	3.75
CCCN(CC)C(=O)c1cc2c(c3ccccc3n2C)n1C(=O)N(C)C	4.9
N#CCC(=O)NCc1nnc2n1CCN(Cc1cccs1)C2	-6.57
CS(=O)(=O)N[C@@H]1COC[C@@H]2CN(Cc3ccoc3)C[C@@H]21	-11.6
Cc1nc(NC(C)C)nc2c1CN(Cc1cccs1)CC2	22.9
c1cn2c(n1)CNCC(COCC1CC1)C2 (configuration not stated)	-9.26
Cc1ccc(Oc2ncccc2C(=O)N(C)CCCN(C)C)cc1	0.617
Cc1ncnc(N2CCN(C(=O)C3CC4(CCNCC4)CN3)CC2)c1C (configuration not stated)	13.5
CSCCC(=O)NCc1cc2n(n1)CCCN(C1CCCCC1)C2	34.5
O=C(c1sccc1-n1cnnn1)N1CCCCC1	-6.17
Cc1ccc(Cl)c2c1C1(NC(=O)c3cccnc3N1)C(=O)N2 (configuration not stated)	-5.73
CCc1ocnc1C(=O)N1CCN(c2nncc3ccccc23)CC1	-19.4
COCCN1CCc2nc(SCc3ccc(F)cc3)[nH]c(=O)c2C1	28.7
Cc1nn(C)c(N(C)C)c1CNC1CCc2c(F)cccc21 (configuration not stated)	7.05
CC(C)c1ccc(OCCNC(=O)CN2CCN(C)CC2C)cc1 (configuration not stated)	1.16
Cc1cccc(NC(=O)c2cnc(C3CCCNC3)cn2)n1 (configuration not stated)	-2.31
Cc1nn(Cn2ccc(C(=O)N3CCCC(C)C3)n2)c(C)c1Cl (configuration not stated)	-5.65
Cc1cc(C(=O)NCc2ccnc(N3CCN(C)CC3)c2)sc1C	20.5
Cc1cn[nH]c1C1COCCN1Cc1ccsc1 (configuration not stated)	-0.803
CC(C)(C)c1cnc(CN2CCCS2(=O)=O)o1	-1.12

SMILES	cytotoxicity at 70.5 h [%]
COCCCN(Cc1cnc(-c2ccccn2)nc1)C1CCN(C)CC1	-22.2
CCOc1cc(NC(=O)N2CCC3(CCOCC3)C2)ccc1C	-7.4
Cc1nc2ncnn2c(C)c1CCC(=O)Nc1cccn(C)c1=O	-15.3
CN(C)CC1CN(Cc2nc(-c3cccnc3)no2)CCO1 (configuration not stated)	-12.3
Cc1cc(C[C@@H]2COC[C@@H]2NC(=O)CN2CCCC2)on1	-0.566
Cc1ccccc1CNC(=O)N1CCC(n2cncn2)CC1	-5.36
CS(=O)(=O)c1cncnc1C1CCCN(C(=O)Cc2ccccc2F)C1 (configuration not stated)	-7.69
CSCCC(=O)N1CCCC(c2ncc[nH]2)C1 (configuration not stated)	-21.7
Cc1nccn1CC1CCCN1S(=O)(=O)Cc1ccc(F)cc1 (configuration not stated)	-0.149
Cc1cc(C)cc(CCC(=O)N2CCN(c3cc(C)nc(N)n3)CC2)c1	6.95
COc1cccc(Nc2nc(-c3ccncc3)nc3c2CNCC3)c1	24.2
CCN(Cc1ccccc1C)S(C)(=O)=O	-3.77
O=C(CCNC(=O)c1ccoc1)Nc1ccccc1F	-8.3
Cc1nc[nH]c1-c1nc2cc(S(=O)(=O)N3CCCC3)ccc2n1C	-2.05
CCC(NC(=O)c1ccco1)c1ccccc1OCC(=O)N1CCCC1 (configuration not stated)	-6.16
CCN(CC)C(=O)CN1CCc2c(nc(C3CCNCC3)nc2NC)C1	-8.61
CN1CCCC1CNC(=O)CCCOc1cccc(F)c1 (configuration not stated)	5.1
CCCn1cc(NC(=O)c2ccc(N(C)CC)cc2)ccc1=O	-7.67
Cc1ccc(C(NC(=O)Cc2nc3ncccn3n2)C2CC2)cc1 (configuration not stated)	-11.9
CCOCCCNCc1cc(O)c2cc(C)ccc2n1	22.7
COc1ccc(C2(CNC(C)c3nnc(C)o3)CCCCC2)cc1 (configuration not stated)	-8.26

SMILES	cytotoxicity at 70.5 h [%]
Cc1cc(NC(=O)N(CCO)Cc2ccsc2)no1	-4.98
OCC1CCCN1c1cc(NCCc2ccccn2)ncn1 (configuration not stated)	14.5
Cc1cc(N2CCN(c3nc4ccccc4cc3CO)CC2)nc(C)n1	-9.44
CN(c1ncnc2c1cnn2C)C1CCCN(c2cccnn2)C1 (configuration not stated)	0.765
Cc1cc(C)c2nc(CN3CCC(N4CCOCC4)CC3)cc(O)c2c1	-0.693
CC(C)n1nnc2c(sc3nc(N4CCOCC4)c4c(c32)CCC4)c1=O	-13.1
Cn1cc(-c2nc(CN3CCN(c4nccs4)CC3)cs2)cn1	-5.83
CCN1CC2(CC1=O)CN(C(=O)N(C)C)CCN(S(C)(=O)=O)C2 (configuration not stated)	-10.5
Cc1noc(C(C)N2CCN(c3ncnc4sccc34)CC2)n1 (configuration not stated)	-7.54
CC(=O)N1CCCC1c1ccnc(Nc2cncnc2)n1 (configuration not stated)	-15.4
CCOCC(O)CN1CCN(C(=O)Cc2ccccc2C)CC1 (configuration not stated)	-1.93
CC(O)CNc1ccc(C#N)cc1C(F)(F)F (configuration not stated)	-12.9
Cc1ccc(C(=O)N2CCCCC2CNC(N)=O)s1 (configuration not stated)	-6.25
O=C1CC2(CCNCC2)C(=O)N1Cc1ccc(F)cc1	29.9
Cc1noc(C)c1CN1CC[C@H]2OCC[C@@H](C(=O)NCC3CC3)[C@@H]2C1	-3.12
CS(=O)(=O)CCCN1CCN(C(C#N)c2ccccc2)CC1 (configuration not stated)	0.393
c1cnn(CCCO[C@@H]2CC[C@H]3[C@H]2OCCN3CC2CC2)c1	-7.2
CCc1ccc(CN2CCN(Cc3ncc[nH]3)[C@H]3CS(=O)(=O)C[C@H]32)nc1	-6.57
Cc1ccc(CN2C[C@H]3CN(C(=O)c4ccno4)CCN3C2=O)cc1	6.23
